From patent US4272538A, “5-Nitro-imidazole with antiprotozoic activity” (Rotta Research Laboratorium S.p.A., priority 1978, dated 1981)

Tests used:
Trichomonas Vaginalis = test: Systemic activity in mice infected subcutaneously with Trichomonas Vaginalis; format: in vivo
Protocol: (B1) Systematic activity in mice infected subcutaneously with Trichomonas Vaginalis Female Charles River mice of about 20 grams weight are used and injected subcutaneously with 1 ml of a physiological solution containing 10^6 cells of Trichomonas Vaginalis (evaluated by means of counting in a Burker chamber), resulting from a 24 hour culture in Trichosel BBL substrate containing 15% in weight/volume of deactivated horse serum. Abscesses are thus developed in the place of infection which may burst open externally, piercing the skin. To establish the activity of a product, groups of 10 animals per tested dose are used, and on the 7th day the presence or absence of abscesses are determined (evaluated in terms of all or nothing). The compounds are administered orally, dissolved or in suspension in water, over 5 days, twice a day, the treatment being started 30 minutes after infection. The results obtained are recorded in Table 2 which gives the ED84 in mg/kg for oral administration, that is the dose of the drug capable of preventing the formation of the infection in 84% of the infected animals.

Entamoeba Histolytica = test: Systemic activity on hepatic abscess from Entamoeba Histolytica in the hamster; format: in vivo
Protocol: (B2) Systemic activity on hepatic abscess from Entamoeba Histolytica in the hamster Golden hamsters of the strain RRL-805 of about 50 grams weight are used; after laparatomy, 0.05 ml of a suspension of amoebae (cellular density of about 10^6 amoebae/ml) is injected into the right hepatic lobe. Abscesses develop on the liver, the average weight of which is determined after killing of the animals 72 hours after the injection. The drugs under examination are administered orally twice a day for four days, the treatment being started the day before the infection. The evaluation is carried out by comparing the average weight of the hepatic abscesses developed in the group of animals treated with a drug with that of a control group. The results obtained are recorded in Table 3 which gives the ED84 in mg/kg administered orally, that is the dose of the drug capable of reducing the weight of the abscesses by 84% with respect to the controls. The values given were calculated from the regression line obtained from the results of a series of experiments, each compound being administered to at least 5 groups of six animals at generally different doses.

[1] = cited from earlier work

O=[N+]([O-])c1cncn1CCN1CCOCC1 [Nimorazole, reference compound]
ED84 (Trichomonas Vaginalis; Trichomonas vaginalis, 168 h, oral, twice a day over 5 days, dose preventing infection in 84% of animals, (S)/(NS) = significance of regression line, read-out: ED84, anti-trichomonas activity in mice): 62.6 mg/kg | Index of relative activity calc. on ED84 (vs metronidazole), mice (Trichomonas Vaginalis; relative to metronidazole = 1): 0.45 | ED84 (Entamoeba Histolytica; Entamoeba histolytica, 72 h, oral, twice a day for four days, dose reducing abscess weight by 84% vs controls, (S)/(NS) = significance of regression line, read-out: ED84, anti-amoebic activity in the hamster): 133 mg/kg | Index of relative activity calc. on the ED84 (vs metronidazole), hamster (Entamoeba Histolytica; relative to metronidazole = 1): 0.8 | LD50, acute oral toxicity (data from literature, rat) [1]: 3180 mg/kg
